Assay results from patent publication US7192951B2, “Treatment of congestive heart failure” (Astellas Pharma Inc., priority 2000, dated 2007).
Counter-ions that a name gives are not always drawn.

What was measured:
[1] = system: AVP-induced pressor response (V1A antagonism); assay: Antagonism of AVP-induced pressor response in rats, oral; assay type: in vivo, rat
[2] = system: AVP-induced pressor response (V1A antagonism); assay: Antagonism of AVP-induced pressor response in dogs, intravenous; assay type: in vivo, dog
[3] = system: urinary output (V2 antagonism); assay: Urinary output and osmolality in conscious dogs, oral; assay type: in vivo, dog
[4] = system: heart failure induced by rapid right ventricular pacing; assay: Dogs with heart failure induced by rapid right ventricular pacing; assay type: in vivo, dog; settings: intravenous 0.1 mg/kg
[5] = Oral pharmacokinetics in rats; assay type: in vivo; settings: rat
Text: (§1) There is a marked food effect with absorption reduced by >50% in dogs after a meal.

[6] = Oral pharmacokinetics in dogs; assay type: in vivo; settings: dog
Text: as §1

[7] = system: bone marrow; assay: 2- and 13-week oral toxicity studies in dogs; assay type: in vivo, dog
[8] = system: rats (fertility); assay: Reproductive performance and female fertility study in rats; assay type: in vivo, rat
[9] = system: rats; assay: Teratogenicity in rats; assay type: in vivo, rat
[10] = system: rabbits; assay: Teratogenicity in rabbits; assay type: in vivo, rabbit
[11] = system: bacteria; assay: Mutagenicity in bacteria; assay type: cell-based
[12] = system: human lymphocytes; assay: Clastogenicity in human lymphocytes in vitro; assay type: cell-based
[13] = system: bone marrow of rats; assay: Clastogenicity in bone marrow of rats; assay type: in vivo, rat
[14] = system: rats; settings: rat, in vivo, 2.5 mg/kg
[15] = system: dogs; settings: dog, in vivo, 2 mg/kg
[16] = system: AVP-induced platelet aggregation (V1A antagonist activity); assay: AVP-induced platelet aggregation in Phase 1 subjects; assay type: in vivo, human; settings: 20 mg/day orally or 2.5 mg IV
[17] = system: AVP-induced dermal vasoconstriction; assay: AVP-induced dermal vasoconstriction in Phase 1 subjects; assay type: in vivo, human; settings: 50 mg IV
[18] = system: aquaretic action (V2-receptor antagonism); assay: Aquaretic action in normal subjects (Phase 1); assay type: in vivo, human
[19] = system: human subjects; assay: Safety in Phase 1 subjects; assay type: in vivo
Text: Other adverse events included flushes, a sensation of cold extremities, abdominal complaints, abnormal stools, syncope, dizziness, palpitations, and postural hypotension. […] These observations were considered related to antagonism of V2 receptors and not a safety concern. Vital signs (blood pressure and heart rate) were unaffected by YM087.

[20] = Human pharmacokinetics (Phase 1)
[21] = system: female rats (estrous cycle, uterine weights); settings: 13-week repeated oral dose, all doses

Cc1nc2c([nH]1)-c1ccccc1N(C(=O)c1ccc(NC(=O)c3ccccc3-c3ccccc3)cc1)CC2 [YM087, N-[4-(2-methyl-4,5,6-tetrahydromidazo[4,5-d][1]benzazepin-6-ylcarbonyl)phenyl]biphenyl-2-carboxamide hydrochloride]
ID50 (dose that reduced the AVP response by 50%) [1]: 0.32 mg/kg | ID50 (dose that reduced the AVP response by 50%) [2]: 0.026 mg/kg | urinary output ([3]; conscious dogs, oral 0.03 to 0.3 mg/kg, dose-related): increased urinary output | urinary osmolality ([3]; conscious dogs, oral 0.03 to 0.3 mg/kg, reduced from 1500, dose-related): < 100 mOsm/kg H2O | effect on urinary sodium (Na) or potassium (K) excretion ([3]; unlike furosemide, species not given): little or no effect | cardiac function [4]: significantly improved the depressed cardiac function | diuresis [4]: produced a water diuresis | time to peak concentrations [5]: 0.5 h | time to peak concentrations [6]: 1 h | peripheral blood counts ([7]; affected dogs, 13-week oral study): Decreased peripheral erythrocyte, leukocyte, and/or platelet counts | reversibility of bone marrow and peripheral blood changes ([7]; dogs): reversible | female fertility ([8]; female rats, 100 mg/kg orally for 2 weeks prior to mating with untreated males): reduced fertility index, increased implantation loss, and decreased live fetuses | reproductive performance of male rats ([8]; male rats): did not affect | teratogenicity [9]: not teratogenic | teratogenicity [10]: not teratogenic | mutagenicity [11]: not mutagenic | clastogenicity [12]: not clastogenic | clastogenicity [13]: not clastogenic | toxicity in 4-week IV study [14]: No toxicity was observed | toxicity in 4-week IV study [15]: No toxicity was observed | AVP-induced platelet aggregation [16]: Inhibition of AVP-induced platelet aggregation | AVP-induced dermal vasoconstriction [17]: Total inhibition | duration of increased urine production rate postdosing ([18]; IV 50 mg/day): ≤ 6 h | duration of increased urine production rate postdosing ([18]; IV doses up to 250 μg/kg): up to 3 hours | tolerability of aquaretic effects ([18]; normal subjects, 120 mg QD or 60 mg BID orally or 50 mg IV): considered too uncomfortable in normal subjects to be tolerable | dose at which aquaretic action with decrease in urine osmolarity starts ([18]; normal subjects, IV): 0.05 mg/kg | dose at which aquaretic action with decrease in urine osmolarity starts ([18]; normal subjects, oral): 15 mg | biochemical or hematological laboratory parameters ([19]; Phase 1 subjects): No drug-related trend was observed | vital signs (blood pressure and heart rate) ([19]; Phase 1 subjects): unaffected | overall safety ([19]; approximately 250 subjects treated): no major safety concerns were identified | urinary and plasma osmolarity ([19]; at higher doses, considered related to V2 antagonism): urinary osmolarity decreased and plasma osmolarity increased with or without an increase in plasma sodium | serious adverse event ([19]; one patient with severe CHF, 80 mg/day for 4 days, relation to study drug could not be excluded): generalized tonic clonic seizure | most frequent adverse events ([19]; regardless of treatment association): mild or moderate thirst and mild headache | white blood cell counts ([19]; three subjects who received YM087 (one on placebo)): minor, reversible decreases in white blood cell counts | plasma levels after repeated BID oral doses ([20]; 60 mg BID oral, after the second dose): unexpectedly high plasma levels after the second dose | half-life ([20]; plasma): 4 to 5 h | bioavailability ([20]; plasma, oral): 43 to 59% | Tmax ([20]; plasma, po): ~1 h | bioavailability ([20]; plasma, po, 60 mg): 44% | uterine weights [21]: decreased at all doses
